The record followed here is patent US20170202878A1, “Method for Preventing or Treating a Protein Aggregation Disease” (Queen Mary University of London, priority 2014, published 2017).

Series [1] concerns RNAse-aggregated proteins from human neurons. Briefly: RNA-mediated re-folding of RNAse-aggregated proteins. The class given is biochemical. The conditions noted are these: for protein solubilising effect of G-quadruple-forming and non-forming oligos: RNAse aggregated proteins from human neurons, aggregated proteins quantified. As to the method:
Proteins were isolated from neuronal lysate by RNAse A/T1 treatment and centrifugation. Pelleted proteins were dissolved in 50 μl of denaturation buffer (20 mM Tris-HCl pH 7.5, 6 M Guanidine hydrochloride, 1% Triton X-100, 20 mM DTT) and sonicated for 5 min at room temperature. […] Dialysis was performed against 600 ml PBS buffer at 4° C. overnight after which the PBS was replaced with fresh PBS (400 ml) and the container placed in a water bath and kept at 37° C. for 1 h. The dialysed samples were transferred to 1.5 ml tubes and the volume adjusted to 100-200 μl with PBS. 7.5-10% of this was taken as Input. Precipitated proteins (Pel 1) were pelleted by centrifugation at 21.000×g for 10 min at +4° C., washed twice in RIPA buffer and processed for SDS-PAGE as before. 7.5-10% of the supernatants was saved (Sup 1) and the remaining volume was either divided into two new tubes supplemented with 0.5 μl vehicle or 0.5 μl RNAse A/T1 or the whole sample placed in one tube and treated with 0.5 μl RNAse A/T1. All samples were incubated at 37° C. for one hour and centrifuged as before. Pelleted proteins (P2) were washed as before and dissolved in SDS/Urea and sonicated. Equal volumes of each fraction were separated on SDS-PAGE gels and then either stained with coomassie or transferred to membranes for western blot analysis. RNA was isolated from cell lysates and purified ribosomes with Trizol LS (Life Technologies) according to the manufacturer's instructions. Ribosomes were isolated from Jurkat T-cells. RNA depleted for rRNA was isolated from the upper two thirds of the supernatant (after pelleting of ribosomes and five times dilution in water) with acid phenol (Life Technologies) followed by EtOH precipitation. RNA from intact cells was isolated with Isol-RNA Lysis Reagent (5 PRIME), according to the manufacturer's instructions. All RNA samples were dissolved in TE (10 mM Tris-HCl pH 8.0, 1 mM EDTA). RNA was analysed by 1.5% agarose or 6% PAGE/8M Urea gel electrophoresis and visualised with Ethidium Bromide. […]

Series [2] relates to lysate from mouse cortex. Briefly: Ribonucleoside vanadyl: impact on protein aggregation. Type of series: biochemical. The conditions noted are these: 10 mM, 1 hour at 37° C., coomassie SDS-PAGE.
The test system of series [3] is cell or tissue lysate treated with RNAse A/T1. Briefly: Sodium orthovanadate: impact on RNAse-induced protein aggregation.
Procedure: Cell or tissue lysate was prepared as described above. Lysate (200 μg at 2 μg/ul) is then treated with a mixture of RNAse A and T1 (A/T1), and incubated with increasing concentrations of Sodium Orthovanadate for one hour at 37° C. Aggregated proteins were isolated by centrifugation (21.000×g) at 4° C. for 20 min, washed twice in 500 μl RIPA buffer and then dissolved in 12 μl 6M Guanidine Hydrochloride, 20 mM Tris-HCl pH 7.5 by sonication for 5 min at room temperature. The amount of protein in 5 μl of this solution was then determined by using the BCA Kit (Thermo Scientific) according to the manufacturer's protocol. Data were expressed in arbitrary units (AU) as a fraction of the amount aggregated proteins (P1)/the amount of protein in the Input, and represent mean±s.d, n=2. […] The experiment was repeated with 50 μM SO and increasing concentrations of RNAse A/T1.
Series [4] deals with aggregated proteins from Jurkat T-cells. Briefly: Two-step refolding of proteins with small molecules or synthetic DNA/RNA. The settings on record: increasing concentrations.
The test system of series [5] is amyloid-β, tau (MAPT), α-synuclein (SNCA), TARDBP (TDP-43), FUS, HTT, PrP, HNRNPA1, actin, NF-H in human neuronal lysates.
The test system of series [6] is Huntingtin (HTT), FUS and TARDBP in Jurkat cell lysates. Type of series: biochemical, human. The settings on record: 15 min treatment, then 1 hour at 37° C.

For the molecule heparin, the “re-folding / solubilisation of RNAse-aggregated proteins (global protein profile)” value in series [1] (denatured in 6M guanidine hydrochloride, dialysed, same amount in weight of nucleic acid or heparin) is given as “neither yeast tRNA nor heparin could substitute for the solubilising capacity of total human RNA”. Take “18S 1129-69: predicted G4-forming ssDNA oligo derived from human 18S ribosomal RNA, 40 nt”: the “protein solubilising effect of G-quadruple-forming and non-forming oligos” value in series [1] is “can solubilise the proteins”. As to Ribonucleoside vanadyl, the “protein aggregation in lysate in the absence of exogenous RNAse” value in series [2] is on record as “causes substantial protein aggregation”; in series [2] (listed as Riobonucleoside vanadyl (VA)) it was “causes protein aggregation”. For “No 4G 1129-69: oligo with same nucleotides as 18S 1129 in an order not predicted to form G-quadruples (DNA TTAAGGGCATCTGATGCGGCGCGTGACGCGGCGCTAAGTG; DNA, backbone not given here)”, the “protein solubilising effect of G-quadruple-forming and non-forming oligos” value in series [1] is listed as “much less efficient”. As for `[Na+].[Na+].[Na+].[O]=[V]([O-])([O-])[O-]` [Sodium orthovanadate], the “background protein aggregation in lysate” value in series [3] was “prevents any background protein aggregation”. Moreover, the “inhibition of RNAse mediated protein aggregation” value in series [3] (added to cell or tissue lysate together with RNAses, 1 hour at 37° C., e.g. TDP-43 and huntingtin) is reported as “completely inhibit aggregation of the proteins”. Further, the “prevention of protein aggregation after refolding (BCA assay)” value in series [4] is “can mimic RNA/DNA in preventing protein aggregation after refolding”.

B1: RNase T1: ribonuclease cleaving single-stranded RNA after G (protein, UniProt P00651 27-130, looked up)
Guanyl-specific ribonuclease …: ACDYTCGSNCYSSSDVSTAQAAGYQLHEDGETVGSNSYPHKYNNYEGFDFSVSSPYYEWPILSSGDVYSGGSPGADRVVFNENNQLAGVITHTGASGNNFVECT
On to B1, for which the “proteins most efficiently precipitated by the RNase (western blot)” value in series [5] is listed as “FUS”.

B2: immobilised RNAse A: biotinylated RNAse A coupled to magnetic strepavidine beads (protein, UniProt P61823 27-150, looked up)
Ribonuclease pancreatic: KETAAAKFERQHMDSSTSAASSSNYCNQMMKSRNLTKDRCKPVNTFVHESLADVQAVCSQKNVACKNGQTNCYQSYSTMSITDCRETGSSKYPNCAYKTTQANKHIIVACEGNPYVPVHFDASV
modifications: biotinylated, coupled to streptavidin magnetic beads
With B2, the “aggregation of HTT, FUS and TARDBP after mixing 10% treated lysate with non-treated lysate (western blot)” value in series [6] is “increase in aggregation”.

B3: RNase A: ribonuclease cleaving single-stranded RNA after C and U, from Sigma (protein)
chain: KETAAAKFERQHMDSSTSAASSSNYCNQMMKSRNLTKDRCKPVNTFVHESLADVQAVCSQKNVACKNGQTNCYQSYSTMSITDCRETGSSKYPNCAYKTTQANKHIIVACEGNPYVPVHFDASV
As for B3, the “proteins most efficiently precipitated by the RNase (western blot)” value in series [5] is “TARDBP, HTT and PrP”.
